US20220298511A1, “APPLICATION OF COMBINED INHIBITION OF LNCRNA SAMMSON AND BRAF KINASE IN DELAYING ADAPTIVE DRUG-RESISTANCE OF MELANOMA” (XI'AN JIAOTONG UNIVERSITY, priority 2021, published 2022)

How the values were obtained:
[1] = system: SAMMSON RNA level in A375 melanoma cells carrying BRAF^V600E mutation; assay: qRT-PCR analysis of SAMMSON RNA level after kinase inhibitor treatment; conditions: 2 μM inhibitor, 0, 6 and 24 hours, actin as internal control
Experimental: (§3) Melanoma cell lines 1205Lu and A375 carrying BRAF^V600E mutation and HEK293FT cells were cultured in a 37° C. constant temperature incubator (containing 5% CO2). The A375 and HEK293FT cells were cultured in Dulbecco's Modified Eagle's Medium (DMEM), and the 1205Lu cells were cultured in Roswell Park Memorial Institute 1640 medium (RPMI 1640 medium). Both of the media contain 10% fetal bovine serum, penicillin (100 units/ml), and streptomycin (100 μg/ml).
(§4) Total RNA was extracted from the melanoma cells using TriPure Isolation Reagent (Roche, Basel, Switzerland), and then reverse transcribed into cDNA using the kit PrimeScript RT Master Mix (Takara #DRR036A, Osaka, Japan). Quantitative real-time PCR reactions were performed using iQ SYBR Green Supermix (BioRad), and analyzed by CFX Connect real-time PCR detection system (BioRad).

[2] = system: SAMMSON RNA level in 1205Lu melanoma cells carrying BRAF^V600E mutation; assay: as above; conditions: 1205Lu cells, 2 μM inhibitor, 0, 6 and 24 hours, actin as internal control
Experimental: as §3, §4

[3] = system: A375 cells; assay: Annexin-V/PI apoptosis assay with SAMMSON siRNA knockdown and vemurafenib; assay type: cell-based; conditions: then 5 μM vemurafenib 48 hours
Experimental: (§1) The cells were collected, washed twice with PBS and stained for 20-30 minutes using Annexin-V-FLUOS kit (Roche) according to the manufacturer's protocol. The stained cells were analyzed by a flow cytometer (Beckman Coulter, Indianapolis Ind., USA). The data were analyzed using Flowjo software (Three Star, Inc., Ashland, Oreg., USA).
The non-targeting control siRNA sequence is:
We tested whether the up-regulation of SAMMSON induced by the inhibition of the ERK signaling pathway is involved in the adaptive drug-resistance of melanoma cells. Two pairs of specific siRNAs (SEQ ID NO: 4 and SEQ ID NO: 5) were used to knock down SAMMSON in two melanoma cell lines A375 and 1205Lu carrying BRAF mutations. […] Referring also to FIGS. 3C to 3F, in A375 cells, percentage of cell apoptosis increased from 19% to 43% (SAM #1) and 37% (SAM #2), and in 1205Lu cells, from 26% to 43% (SAM #1) and 46% (SAM #2).

[4] = system: 1205Lu TR SAMMSON cells; assay: Annexin-V/PI apoptosis assay with doxycycline-induced SAMMSON overexpression; assay type: cell-based; conditions: 5 μM vemurafenib 48 hours
Experimental: (§2) The wild-type HA-SOX10 cDNA or SAMMSON cDNA was cloned into a pENTR/D-TOPO vector (Thermo Fisher Scientific) to construct an entry vector. Then, the entry vector and a pLentipuro/TO/V5-DEST vector were recombined to form a lentiviral vector. Lentivirus packaging for the lentiviral vector was performed in HEK293FT cells to produce lentiviruses. The melanoma cells 1205Lu and A375 were infected with the lentiviruses for 72 hours, and then screened by using puromycin to produce A375-TR HA-SOX10 WT cells, 1205Lu-TR HA-SOX10 WT cells, A375-TR SAMMSON cells and 1205Lu-TR SAMMSON cells.
as §1

[5] = system: A375 TR SAMMSON cells; assay: as above; assay type: cell-based; conditions: 5 μM vemurafenib 48 hours
Experimental: as §2, §1

[6] = with 100 ng/ml doxycycline 72 hours (SAMMSON overexpressed)

With O=C(Nc1ccc2[nH]nc(-c3ccncc3)c2c1)[C@@H]1CCN(CC(=O)N2CCN(c3ccc(-c4ncccn4)cc3)CC2)C1 [SCH772984] the “RNA level of SAMMSON” value [1] was “rapidly up-regulate the RNA level of SAMMSON” and the “RNA level of SAMMSON” value [2] was “rapidly up-regulate the RNA level of SAMMSON”.
For “SAM #1: SAMMSON-specific siRNA, SEQ ID NO: 4, 5′-GUCGCUAGACAUUUGAGGA-3′ (listed as RNA, chemistry not given here)”, the “percentage of cell apoptosis” value ([3]; SAMMSON siRNA 48 hours) was 43%.
For “SAM #2: SAMMSON-specific siRNA, SEQ ID NO: 5, 5′-CCAACUCUCAAAGUAACUU-3′ (listed as RNA, chemistry not given here)”, the “percentage of cell apoptosis” value ([3]; SAMMSON siRNA 48 hours) was 37%.
In the case of CCCS(=O)(=O)Nc1ccc(F)c(C(=O)c2c[nH]c3ncc(-c4ccc(Cl)cc4)cc23)c1F [vemurafenib, Vemurafenib], the “percentage of cell apoptosis” value ([3]; control siRNA 48 hours) is reported as 19%, the “percentage of cell apoptosis” value [4, 6] is reported as 33% and the “percentage of cell apoptosis” value ([4]; without doxycycline) is reported as 44%. For the same compound, the “percentage of cell apoptosis” value [5, 6] was 33% and the “percentage of cell apoptosis” value ([5]; without doxycycline) was 51%.
